Measurements taken from patent publication US9155765B2, “Establishment of patient- or person-specific cardiac myocyte cell lines from human induced pluripotent stem cells (iPSCs)” (Baylor Research Institute, priority 2011, dated 2015).

Tested on: derived cardiac cell line
Test: Effect of hypertrophy inducing drugs on derived cardiac cell line (cell size change)
Format: cell-based, human
Conditions: 24 hrs after drug administration; phase-contrast images before and after (FIG. 8)
Description: The effect of hypertrophy inducing drugs on derived cardiac cell line was tested. A response to cardiac toxic reagents is important in evaluating the properties of derived cardiac cell line and the future usage of the cells for testing cardiac toxic reagents as well as the mechanistic study on cardiomyopathy. Tumor necrosis factor (TNF)-α was used for the induction and compared the cell size changes at 24 hrs after drug administration.

In the case of Tumor necrosis factor (TNF)-α [TNF-α], the cell size changes is reported as “increase in the sizes of treated cardiac cells”.
